{"source": "patent US20090285916A1", "about": "“METHODS OF DIAGNOSIS AND TREATMENT OF EQUINE LAMINITIS AND CUSHING'S SYNDROME” (Pegasus Equine Diagnostics Limited, priority 2006, published 2009)", "key": {"equine digital arteries": {"tested_on": "equine digital arteries", "details": "reference 38; cited from earlier work"}, "[1]": {"tested_on": "PPID (pituitary pars intermedia dysfunction)", "assay": "Anecdotal evidence on melatonin and pergolide dosing in PPID horses and ponies", "assay_type": "in vivo", "description": "From a chronological perspective obviously both groups of horses were aged (>16 years), but from the viewpoint of the Neuroendocrine Theory of Aging (21) the PPID group might be considered to be of greater “biological age” than the control group. […] There was also a pronounced dopamine rhythm phase shift and amplitude decrease for the PPID group in June and September, in addition to evidence of serotonin acrophase amplitudes being increased in September. These observations are consistent with the reduction in dopamine and concomitant increase in serotonin implied in the treatment of PPID horses with dopamine agonists and serotonin antagonists. […] This may also apply to the subsequent increases in follicle density and length plus coarsening of the hair structure that have been observed. It is worth noting that the significant differences between the groups in our results appear to pre-date the traditionally acknowledged seasons (spring, autumn) of increased laminitis susceptibility by approximately three months (as well as being present during such seasons); this is perhaps not when most practitioners would expect them. […] The situation may, of course, be exacerbated by other trigger factors for laminitis becoming part of the external conditions to which the horse is exposed, e.g. access to a flush of spring grass. Additionally, it might be expected that dopamine and serotonin would be the dominant factors implicated in investigating PPID, as defined by past treatment regimes. However, when the results of the present study were examined as a whole, taking into account assay sensitivity, the neurohormone rhythms that were discovered and neurohormone rhythms that exist in the literature for healthy horses (14, 40, 41), the signals felt to be most reliable were dopamine plasma concentrations and serotonin:melatonin and dopamine:melatonin plasma concentration ratios, with serotonin:dopamine only represented for two times in June (as shown in FIG. 6). […]"}}}
{"smiles": "NCCc1c[nH]c2ccc(O)cc12", "note": "[5-HT, 5-hydroxytryptamine]", "values": [{"measurement": "sensitivity of digital arteries to vasoconstrictive actions compared with other peripheral blood vessels", "setting": "equine digital arteries", "value": "30-40 fold"}]}
{"smiles": "COc1ccc2[nH]cc(CCNC(C)=O)c2c1", "note": "[melatonin]", "values": [{"measurement": "shedding of the winter coat", "setting": "[1]; low dosage 1.5 mg, in the evening each day, all year round", "value": "facilitates shedding of the winter coat at the expected time"}]}
{"smiles": "CCCN1C[C@H](CSC)C[C@@H]2c3cccc4[nH]cc(c34)C[C@H]21", "note": "[pergolide]", "values": [{"measurement": "effect of changing time of day of administration, changing the dosage (by as little as 0.05 mg per day) and under or over dosing", "setting": "[1]", "value": "increase the probability that laminitis will occur"}, {"measurement": "maximum dosage for ponies", "setting": "[1]; ponies", "value": 0.75, "unit": "mg"}]}
